From patent US11993609B2, “Compositions and methods for oral delivery of crystalline PRX-3140 potassium salt” (Nanopharmaceutics, Inc., priority 2022, dated 2024)
Entries after “also recorded” stand apart in the source; their conditions may differ. Where two headings read alike, the source gives them in different places.

Legend:
[1] = system: all other 5-HT receptors tested; test: radioligand binding, other 5-HT receptors (selectivity); conditions: vs 5-HT4R affinity
Text: (§1) The specific ligand binding to the receptors is defined as the difference between the total binding and the nonspecific binding determined in the presence of an excess of unlabelled ligand.

Sigma-1 receptor = Sigma-1 receptor (Homo sapiens, UniProt Q99720); test: Sigma-1 radioligand binding assays
Sequence of Sigma-1 receptor (Q99720 whole entry): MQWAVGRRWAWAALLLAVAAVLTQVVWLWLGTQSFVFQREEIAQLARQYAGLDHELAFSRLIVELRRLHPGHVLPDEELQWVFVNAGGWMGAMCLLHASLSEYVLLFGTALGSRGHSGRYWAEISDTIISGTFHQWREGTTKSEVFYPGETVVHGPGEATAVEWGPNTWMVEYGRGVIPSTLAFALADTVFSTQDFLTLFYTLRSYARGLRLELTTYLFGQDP
Text: as §1

Sigma-2 receptor = Sigma-2 receptor (Homo sapiens, UniProt Q5BJF2); test: Sigma-2 radioligand binding assays
Sequence of Sigma-2 receptor (Q5BJF2 whole entry): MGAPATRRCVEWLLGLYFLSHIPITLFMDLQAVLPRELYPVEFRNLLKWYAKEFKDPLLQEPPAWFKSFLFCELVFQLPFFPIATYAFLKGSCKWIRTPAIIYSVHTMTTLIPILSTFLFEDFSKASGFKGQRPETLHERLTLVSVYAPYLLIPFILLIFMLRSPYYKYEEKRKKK
Text: as §1

[2] = system: more than 50 other receptors tested including GPCRs, ion channels and receptor tyrosine kinases; test: binding panel of other receptors
Text: as §1

[3] = brain/serum partition after oral administration in preclinical studies; conditions: in vivo
Text: (§2) PRX-3140 is being developed for Alzheimer's disease (AD) and other dementias affecting the cholinergic and/or serotonergic systems including post-traumatic stress disorder (PTSD). Extensive non-clinical studies have been completed including in vitro and in vivo pharmacology, safety pharmacology, genotoxicity as well as single and repeat dose toxicology studies in two species, rat and beagle dog.

[4] = early-stage clinical studies (safety, tolerability, pharmacokinetics); assay type: in vivo
Text: as §2

[5] = system: distal gastrointestinal motility; test: distal gastrointestinal motility; conditions: in vivo
Text: as §2

[6] = photostability study (ICH Q1B), HPLC; assay type: physicochemical
Description: Two samples of crystalline fine particle Form I of PRX-3140 potassium salt were prepared for photostability testing: (1) 1.5 grams spread evenly across a glass Petri dish and covered with a transparent quartz cover and (2) 1.5 grams spread evenly across a glass Petri dish and covered with aluminum foil. […] Samples were exposed for 2 days and tested using HPLC […] […] Changes were evident for crystalline fine particle Form I of PRX-3140 potassium salt after exposure to UVA and white light. The sample changed color particularly on the upper exposed surface of the material and there were changes apparent in the HPLC data. […] The single impurity profile met the specification (<0.2%) but significant changes were observed. […] Other changes included a change in appearance of the material to a sticky solid and an increase in water content to 4.3% w/w.

[7] = forced degradation study (acid, base, 3% hydrogen peroxide), LC-UV-MS; assay type: physicochemical
Description: Crystalline fine particle Form I of PRX-3140 potassium salt was subjected to a forced degradation study using acid, base, or hydrogen peroxide exposure for 24 hours. Samples were neutralized and analyzed using LC-UV-MS. [table] Sample Preparation: […] One mL of stock was added to four, 4 mL vials. […] After storage, the samples of acid and base were neutralized by addition of 1 mL their counter solution. […] Samples were analyzed using LC-UV-MS. Table 5 lists a comparison for the control, acid, base, and peroxide samples showing percent peak area versus relative retention time (RRT) at 250 nm. While some minor changes can be noted between the control with the acid and base samples, the overall purity (peak area) of the parent molecule is just slightly higher for the acid and base sample. Some of the minor impurities appear to be reacting with the acid or base, potentially reforming to the parent.

[8] = 30% peroxide degradation study, LC/UV/MS; assay type: physicochemical; conditions: 18-hour exposure to 30% hydrogen peroxide, HPLC 250 nm
[9] = system: distal gastrointestinal motility; conditions: gastrointestinally active 5-HT4 agonists, comparison; cited from earlier work
[10] = Control (covered with aluminum foil), potassium salt
[11] = Exposed Sample (ICH Q1B light, 2 days), potassium salt
[12] = Acid (1N HCl, 24 hours), 250 nm
[13] = Base (1N NaOH, 24 hours), 250 nm
[14] = Control (DI water, 24 hours), 250 nm

## CC(C)n1c(=O)c(C(=O)NCCCN2CCCCC2)c([O-])c2ccsc21.[K+] [PRX-3140 potassium salt, 6,7-Dihydro-4-hydroxy-7-isopropyl-6-oxo-N-(3-(piperidin-1-yl)propyl)thieno[2,3-b]pyridine-5-carboxamide potassium salt]
[1]
  difference in affinities compared with all other 5-HT receptors tested: more than 100 fold
Sigma-1 receptor
  Ki: 0.079 to 0.1 µM
Sigma-2 receptor
  Ki: 0.099 to 0.16 µM
[2]
  affinity for other receptors: no significant affinity
[3]
  CNS penetration: high CNS penetration
[4]
  oral bioavailability: high oral bioavailability
[5]
  distal gastrointestinal motility: without inducing significant distal gastrointestinal motility
[6]; Control
  Unknown (RRT 0.55): 0.01%
  Unknown (RRT 0.74): 0.01%
  Unknown (RRT 0.75): 0.01%
  Unknown (RRT 0.87): 0.09%
  Unknown (RRT 0.95): 0.04%
  Unknown (RRT 0.98): 0.01%
  Unknown (RRT 1.07): 0.01%
  Unknown (RRT 1.12): 0.01%
  Unknown (RRT 1.22): 0.01%
[6]; Control (covered with aluminum foil)
  Appearance: Pinkish solid
[6]; [10]
  Total impurities: 0.20%
  Water Content - KF: 3.1 % w/w
[6]; Exposed Sample
  Unknown (RRT 0.55): 0.01%
  Unknown (RRT 0.74): 0.02%
  Unknown (RRT 0.75): 0.01%
  Unknown (RRT 0.86): 0.01%
  Unknown (RRT 0.87): 0.10%
  Unknown (RRT 0.90): 0.01%
  Unknown (RRT 0.91): 0.01%
  Unknown (RRT 0.95): 0.05%
  Unknown (RRT 0.98): 0.04%
  Unknown (RRT 1.07): 0.06%
  Unknown (RRT 1.12): 0.02%
  Unknown (RRT 1.22): 0.01%
  Unknown (RRT 1.50): 0.02%
  Unknown (RRT 1.54): 0.01%
  Unknown (RRT 1.57): 0.01%
  Unknown (RRT 1.63): 0.05%
  Unknown (RRT 1.75): 0.04%
  Unknown (RRT 1.76): 0.03%
  Unknown (RRT 1.79): 0.01%
  Unknown (RRT 2.06): 0.01%
  Unknown (RRT 2.08): 0.01%
  Unknown (RRT 2.16): 0.01%
[6]; [11]
  Appearance: sticky solid; also recorded: Orange
  Total impurities: 0.77%
  Water Content - KF: 4.3 % w/w
[6]; Exposed Sample, first RRT 1.72 line (r24)
  Unknown (RRT 1.72): 0.04%
[6]; Exposed Sample, potassium salt
  Unknown (RRT 1.83): 0.16%
[6]; Exposed Sample, second RRT 1.72 line (r25)
  Unknown (RRT 1.72): 0.02%
[6]; illuminated photostability sample
  assay value: 94.2 % w/w
[6]; t = 0
  Appearance: Light brown solid
  Total impurities: 0.22%
  Unknown (RRT 0.55): 0.01%
  Unknown (RRT 0.74): 0.01%
  Unknown (RRT 0.75): 0.01%
  Unknown (RRT 0.87): 0.09%
  Unknown (RRT 0.95): 0.05%
  Unknown (RRT 0.98): 0.01%
  Unknown (RRT 1.12): 0.01%
  Unknown (RRT 1.22): 0.01%
  Unknown (RRT 2.01): 0.01%
  Unknown (RRT 2.16): 0.01%
  Unknown (RRT 2.38): 0.01%
[6]; t = 0, potassium salt
  Water Content - KF: 0.9 % w/w
[7]; 1 N HCl for 24 hours
  effect of acid on the compound: very little effect
[7]; 1 N NaOH for 24 hours
  effect of base on the compound: very little effect
[7]; [12]
  percent peak area, RRT 0.99: 0.07%
  percent peak area, RRT 1.05 (PRX-3140b): <0.03%
  percent peak area, RRT 1.08: 0.11%
  percent peak area, RRT 1.11: 0.04%
  percent peak area, RRT 1.27: 0.04%
  percent peak area, RRT 1.34: 0.15%
  percent peak area, RRT 1.53: 0.43%
  percent peak area, RRT 1.79: 0.04%
  percent peak area, RRT 2.51: 0.06%
  percent peak area, RRT 2.70: 0.13%
[7]; Acid (1N HCl, 24 hours), 250 nm, listed as PRX-3140 Potassium Salt, potassium salt
  percent peak area, RRT 1.00 (parent molecule, purity): 98.94%
[7]; Acid (1N HCl, 24 hours), 250 nm, potassium salt
  percent peak area, RRT 1.00 (parent molecule, purity): 98.9%
[7]; [13]
  percent peak area, RRT 0.94: 0.28%
  percent peak area, RRT 1.05 (PRX-3140b): <0.03%
  percent peak area, RRT 1.08: 0.12%
  percent peak area, RRT 1.34: 0.16%
  percent peak area, RRT 1.53: 0.42%
  percent peak area, RRT 1.79: 0.05%
  percent peak area, RRT 2.51: 0.05%
  percent peak area, RRT 2.70: 0.12%
[7]; Base (1N NaOH, 24 hours), 250 nm, listed as PRX-3140 Potassium Salt, potassium salt
  percent peak area, RRT 1.00 (parent molecule, purity): 98.71%
[7]; Base (1N NaOH, 24 hours), 250 nm, potassium salt
  percent peak area, RRT 1.00 (parent molecule, purity): 98.7%
[7]; [14]
  percent peak area, RRT 1.05 (PRX-3140b): <0.03%
  percent peak area, RRT 1.08: 0.12%
  percent peak area, RRT 1.11: 0.04%
  percent peak area, RRT 1.34: 0.17%
  percent peak area, RRT 1.53: 0.42%
  percent peak area, RRT 1.71: 0.23%
  percent peak area, RRT 1.79: 0.11%
  percent peak area, RRT 1.93: 0.06%
  percent peak area, RRT 2.51: 0.06%
  percent peak area, RRT 2.70: 0.18%
[7]; Control (DI water, 24 hours), 250 nm, listed as PRX-3140, potassium salt
  percent peak area, RRT 1.00 (parent molecule, purity): 98.6%
[7]; Control (DI water, 24 hours), 250 nm, listed as PRX-3140 Potassium Salt, potassium salt
  percent peak area, RRT 1.00 (parent molecule, purity): 98.60%
[7]; Control (DI water, 24 hours), 250 nm, potassium salt
  percent peak area, RRT 1.00 (parent molecule, purity): 98.6%
[7]; H2O2 (3%, 24 hours), 250 nm
  percent peak area, RRT 0.78 (PRX-3140a): 8.49%
  percent peak area, RRT 0.82: 0.10%
  percent peak area, RRT 1.05 (PRX-3140b): 9.06%
  percent peak area, RRT 1.08: 0.19%
  percent peak area, RRT 1.27: 0.21%
  percent peak area, RRT 1.34: 0.09%
  percent peak area, RRT 1.42: 0.32%
  percent peak area, RRT 1.53: 0.42%
  percent peak area, RRT 1.79: 0.19%
  percent peak area, RRT 2.70: 0.11%
[7]; H2O2 (3%, 24 hours), 250 nm, listed as PRX-3140, potassium salt
  percent peak area, RRT 1.00 (parent molecule, purity): 80.6%
[7]; H2O2 (3%, 24 hours), 250 nm, listed as PRX-3140 Potassium Salt, potassium salt
  percent peak area, RRT 1.00 (parent molecule, purity): 80.57%
[7]; H2O2 (3%, 24 hours), 250 nm, potassium salt
  percent peak area, RRT 1.00 (parent molecule, purity): 80.6%
[8]
  purity of the parent molecule: 29.6%

## COc1cc(N)c(Cl)cc1C(=O)NC1CCN(CCCOc2ccc(F)cc2)CC1OC (centres unmarked) [cisapride]
[9]
  distal gastrointestinal motility: significant distal gastrointestinal motility observed

## CCCCCNC(=N)N/N=C/c1c[nH]c2ccc(OC)cc12 [tegaserod]
[9]
  distal gastrointestinal motility: significant distal gastrointestinal motility observed

## [7-(methylethyl)1,4,6-trioxo(5,7-dihydrothiopheno[2,3-b]pyridine-5-yl)]-N-(3-piperidylpropyl)carboxamide [PRX-3140b]
[7]; [12]
  percent peak area, RRT 1.05 (PRX-3140b): < 0.03%
[7]; [13]
  percent peak area, RRT 1.05 (PRX-3140b): < 0.03%
[7]; [14]
  percent peak area, RRT 1.05 (PRX-3140b): < 0.03%
[7]; H2O2 (3%, 24 hours), 250 nm
  percent peak area, RRT 1.05 (PRX-3140b): 9.1%
